Assay results published in US20240308976A1, “COMPOUNDS THAT MEDIATE PROTEIN DEGRADATION AND USES THEREOF” (Monte Rosa Therapeutics, Inc., priority 2021, published 2024).
pIC50: −log10 of the molar value.

Assays:
CRBN-DDB1 = CRBN-DDB1 (Homo sapiens, UniProt Q96SW2); experiment: Compound binding to CRBN by HTRF assay; conditions: CRBN-DDB1 2.5 nM, Cy5-Thalidomide 100 nM, 30 min at ambient temperature; read-out: HTRF Class (Cereblon binding, HTRF IC50)
Method in brief: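 Cy5-thalidomide (100 nM) displacement from His-tagged CRBN-DDB1 (2.5 nM) read by terbium-cryptate HTRF (665/620 nm), in 20 mM HEPES, 20 mM NaCl, 0.2 mM TCEP, 0.2 mM EDTA, 0.005% Tween20. Compounds tested as 10-point 1:3 series, 30 min at ambient temperature. Signal normalised to DMSO and lenalidomide controls; IC50 fitted, Ki by Cheng-Prusoff.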

GSPT1 = biological target: T1, GSPT1 (Homo sapiens, UniProt P15170+Q96SW2); experiment: Immunofluorescence assay for activity to degrade GSPT1 in CAL-51 cells; assay type: cell-based; conditions: 6 h treatment, read-out: IF Class (GSPT1 degradation, DC50)
T1 construct: CAL-51 cells were purchased from DSMZ (cat. Number ACC302); host or cells: CAL-51
Method in brief: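 CAL-51 cells treated 6 h with compound (30 μM to 0.1 nM), fixed, immunostained for GSPT1 with DAPI and phalloidin counterstains, imaged by high-content microscopy. Mean per-cell GSPT1 intensity normalized to controls; DC50 by non-linear regression.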

CRBN-DDB1, sequence (Q96SW2 whole entry): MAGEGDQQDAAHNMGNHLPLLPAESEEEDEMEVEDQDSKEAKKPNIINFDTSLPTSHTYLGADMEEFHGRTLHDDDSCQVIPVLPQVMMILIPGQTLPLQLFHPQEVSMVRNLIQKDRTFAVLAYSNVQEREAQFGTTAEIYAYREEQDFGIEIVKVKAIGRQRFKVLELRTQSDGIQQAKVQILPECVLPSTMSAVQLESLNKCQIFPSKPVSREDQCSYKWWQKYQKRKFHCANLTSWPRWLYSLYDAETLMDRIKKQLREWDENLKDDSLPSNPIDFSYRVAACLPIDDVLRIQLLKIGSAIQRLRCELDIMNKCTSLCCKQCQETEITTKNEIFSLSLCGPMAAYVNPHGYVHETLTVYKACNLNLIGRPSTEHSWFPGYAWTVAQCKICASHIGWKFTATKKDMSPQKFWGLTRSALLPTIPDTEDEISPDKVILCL
CRBN-DDB1, sequence (Q16531 whole entry partner): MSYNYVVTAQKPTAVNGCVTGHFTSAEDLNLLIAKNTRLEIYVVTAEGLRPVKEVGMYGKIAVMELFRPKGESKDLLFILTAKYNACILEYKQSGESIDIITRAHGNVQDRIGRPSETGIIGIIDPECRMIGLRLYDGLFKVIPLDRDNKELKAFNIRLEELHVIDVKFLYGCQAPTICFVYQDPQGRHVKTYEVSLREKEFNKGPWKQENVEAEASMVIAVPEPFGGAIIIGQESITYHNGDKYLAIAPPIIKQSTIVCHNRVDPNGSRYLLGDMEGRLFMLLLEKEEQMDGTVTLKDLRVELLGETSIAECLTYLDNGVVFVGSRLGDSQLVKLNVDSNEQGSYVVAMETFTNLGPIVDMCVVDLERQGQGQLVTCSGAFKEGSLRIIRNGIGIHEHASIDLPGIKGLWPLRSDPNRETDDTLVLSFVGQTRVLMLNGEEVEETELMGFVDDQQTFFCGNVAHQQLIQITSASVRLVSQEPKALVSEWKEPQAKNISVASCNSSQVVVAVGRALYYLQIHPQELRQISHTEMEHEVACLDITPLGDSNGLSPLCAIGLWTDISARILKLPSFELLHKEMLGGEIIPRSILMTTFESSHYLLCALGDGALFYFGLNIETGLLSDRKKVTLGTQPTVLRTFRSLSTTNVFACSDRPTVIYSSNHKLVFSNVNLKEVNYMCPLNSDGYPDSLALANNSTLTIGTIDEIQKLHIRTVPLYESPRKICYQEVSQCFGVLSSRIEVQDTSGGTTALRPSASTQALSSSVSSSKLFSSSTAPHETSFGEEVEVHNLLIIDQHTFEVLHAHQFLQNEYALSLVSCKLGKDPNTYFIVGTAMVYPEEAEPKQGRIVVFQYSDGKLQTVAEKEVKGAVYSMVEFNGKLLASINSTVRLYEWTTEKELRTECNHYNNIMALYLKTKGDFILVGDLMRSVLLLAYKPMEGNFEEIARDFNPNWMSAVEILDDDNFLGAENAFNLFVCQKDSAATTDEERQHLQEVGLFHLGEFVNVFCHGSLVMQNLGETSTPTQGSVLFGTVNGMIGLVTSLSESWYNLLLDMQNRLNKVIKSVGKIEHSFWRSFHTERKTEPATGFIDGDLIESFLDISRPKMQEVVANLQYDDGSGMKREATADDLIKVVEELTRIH
T1 sequence (P15170 whole entry): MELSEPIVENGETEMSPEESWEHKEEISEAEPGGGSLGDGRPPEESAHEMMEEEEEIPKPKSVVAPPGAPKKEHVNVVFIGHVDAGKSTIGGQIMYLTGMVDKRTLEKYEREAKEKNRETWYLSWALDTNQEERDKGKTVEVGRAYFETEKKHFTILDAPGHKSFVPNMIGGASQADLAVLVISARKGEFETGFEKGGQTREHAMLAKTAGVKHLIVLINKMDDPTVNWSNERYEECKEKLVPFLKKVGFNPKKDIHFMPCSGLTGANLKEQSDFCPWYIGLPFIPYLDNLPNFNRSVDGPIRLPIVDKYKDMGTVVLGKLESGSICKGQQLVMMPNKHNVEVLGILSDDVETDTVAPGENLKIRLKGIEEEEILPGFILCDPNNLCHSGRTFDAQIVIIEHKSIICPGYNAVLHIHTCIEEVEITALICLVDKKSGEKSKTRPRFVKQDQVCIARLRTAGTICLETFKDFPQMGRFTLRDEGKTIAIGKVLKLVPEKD
T1 sequence (Q96SW2 whole entry): as the sequence (Q96SW2 whole entry) above
T1 sequence (Q16531 2-1140 partner limits assumed): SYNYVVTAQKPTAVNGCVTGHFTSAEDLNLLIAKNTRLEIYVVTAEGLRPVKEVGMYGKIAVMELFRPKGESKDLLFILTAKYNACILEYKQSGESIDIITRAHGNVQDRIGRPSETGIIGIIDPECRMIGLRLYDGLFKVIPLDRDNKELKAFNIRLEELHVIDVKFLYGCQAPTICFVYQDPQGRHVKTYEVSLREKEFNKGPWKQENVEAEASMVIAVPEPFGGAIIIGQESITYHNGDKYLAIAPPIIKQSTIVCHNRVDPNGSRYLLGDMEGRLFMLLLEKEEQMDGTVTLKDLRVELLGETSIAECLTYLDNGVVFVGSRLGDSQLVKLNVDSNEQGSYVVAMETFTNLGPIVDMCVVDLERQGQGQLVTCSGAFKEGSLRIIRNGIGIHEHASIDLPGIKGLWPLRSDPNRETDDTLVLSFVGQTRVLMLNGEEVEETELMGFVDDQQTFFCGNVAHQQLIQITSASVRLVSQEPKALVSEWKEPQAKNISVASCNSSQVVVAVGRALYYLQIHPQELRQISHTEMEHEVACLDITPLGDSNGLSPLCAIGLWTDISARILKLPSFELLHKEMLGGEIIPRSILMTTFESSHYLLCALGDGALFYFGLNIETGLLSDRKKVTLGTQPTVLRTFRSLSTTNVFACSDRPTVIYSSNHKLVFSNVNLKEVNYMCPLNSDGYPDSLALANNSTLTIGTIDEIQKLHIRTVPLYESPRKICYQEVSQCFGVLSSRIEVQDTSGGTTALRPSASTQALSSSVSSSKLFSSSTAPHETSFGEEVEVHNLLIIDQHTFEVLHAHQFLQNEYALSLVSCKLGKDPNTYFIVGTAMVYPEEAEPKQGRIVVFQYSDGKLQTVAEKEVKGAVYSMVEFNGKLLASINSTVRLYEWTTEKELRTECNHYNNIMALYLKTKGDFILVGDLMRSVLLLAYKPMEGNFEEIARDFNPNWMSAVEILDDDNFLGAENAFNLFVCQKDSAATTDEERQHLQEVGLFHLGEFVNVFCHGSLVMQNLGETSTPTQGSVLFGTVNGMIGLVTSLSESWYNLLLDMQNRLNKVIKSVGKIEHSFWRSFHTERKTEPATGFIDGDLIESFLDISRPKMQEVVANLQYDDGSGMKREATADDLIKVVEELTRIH

**Q.** How did the pIC50 (CRBN-DDB1) turn out when `CC(C)CCNC(=O)OC1CN(c2cc(F)c(C3CCC(=O)NC3=O)c(F)c2)C1` (stereo not drawn) [Compound 125, 1-(4-(2,6-dioxopiperidin-3-yl)-3,5-difluorophenyl)azetidin-3-yl isopentylcarbamate] was run?
**A.** 6.00 to 7.00

**Q.** What about the DC50 (GSPT1) of the same molecule?
**A.** ≤ 30 nM

**Q.** How did the pIC50 (CRBN-DDB1) turn out when `CC(C)(C)N1CC(NC(=O)OC2CN(c3cc(F)c(C4CCC(=O)NC4=O)c(F)c3)C2)C1` (stereo not drawn) [Compound 126, 1-(4-(2,6-dioxopiperidin-3-yl)-3,5-difluorophenyl)azetidin-3-yl(1-(tert-butyl)azetidin-3-yl)carbamate] was run?
**A.** ≥ 7.00

**Q.** What about the DC50 (GSPT1) of the same molecule?
**A.** > 300 nM

**Q.** With `O=C1CCC(c2c(F)cc(N3CC(OC(=O)NCC4CCCCC4)C3)cc2F)C(=O)N1` (stereo not drawn) [Compound 127, 1-(4-(2,6-dioxopiperidin-3-yl)-3,5-difluorophenyl)azetidin-3-yl(cyclohexylmethyl) carbamate] as the molecule, how does the pIC50 (CRBN-DDB1) read?
**A.** 6.00 to 7.00

**Q.** And the DC50 (GSPT1)?
**A.** ≤ 30 nM

**Q.** What does the source list for `O=C1CCC(c2c(F)cc(N3CC(OC(=O)N[C@H]4C[C@H](c5ccccc5)C4)C3)cc2F)C(=O)N1` (stereo partly drawn) [Compound 128, 1-(4-(2,6-dioxopiperidin-3-yl)-3,5-difluorophenyl)azetidin-3-yl((1R,3R)-3 phenylcyclobutyl) carbamate]?
**A.** pIC50 (CRBN-DDB1): 6.00 to 7.00; DC50 (GSPT1): ≤ 30 nM

**Q.** How did the pIC50 (CRBN-DDB1) turn out when `C[C@@H](NC(=O)OC1CN(c2cc(F)c(C3CCC(=O)NC3=O)c(F)c2)C1)C1CCCCC1` (stereo partly drawn) [Compound 129, 1-(4-(2,6-dioxopiperidin-3-yl)-3,5-difluorophenyl)azetidin-3-yl ((R)-1-cyclohexylethyl)carbamate] was run?
**A.** ≥ 7.00

**Q.** What about the DC50 (GSPT1) of the same molecule?
**A.** 30 to 300 nM

**Q.** Which results are given for `C[C@H](NC(=O)OC1CN(c2cc(F)c(C3CCC(=O)NC3=O)c(F)c2)C1)c1ccccc1` (stereo partly drawn) [Compound 130, 1-(4-(2,6-dioxopiperidin-3-yl)-3,5-difluorophenyl)azetidin-3-yl((S)-1-phenylethyl) carbamate]?
**A.** pIC50 (CRBN-DDB1): 6.00 to 7.00; DC50 (GSPT1): > 300 nM

**Q.** How did the pIC50 (CRBN-DDB1) turn out when `CCCCNC(=O)OC1CN(c2cc(F)c(C3CCC(=O)NC3=O)c(F)c2)C1` (stereo not drawn) [Compound 131, 1-(4-(2,6-dioxopiperidin-3-yl)-3,5-difluorophenyl)azetidin-3-yl butylcarbamate] was run?
**A.** 6.00 to 7.00

**Q.** What about the DC50 (GSPT1) of the same molecule?
**A.** 30 to 300 nM

**Q.** How did the pIC50 (CRBN-DDB1) turn out when `CC(C)CNC(=O)OC1CN(c2cc(F)c(C3CCC(=O)NC3=O)c(F)c2)C1` (stereo not drawn) [Compound 132, 1-(4-(2,6-dioxopiperidin-3-yl)-3,5-difluorophenyl)azetidin-3-yl isobutylcarbamate] was run?
**A.** 6.00 to 7.00

**Q.** And the DC50 (GSPT1)?
**A.** > 300 nM

**Q.** With `CO[C@H]1CC[C@H](NC(=O)OC2CN(c3cc(F)c(C4CCC(=O)NC4=O)c(F)c3)C2)CC1` (stereo partly drawn) [Compound 133, 1-(4-(2,6-dioxopiperidin-3-yl)-3,5-difluorophenyl)azetidin-3-yl ((1R,4R)-4-methoxycyclohexyl)carbamate] as the molecule, how does the pIC50 (CRBN-DDB1) read?
**A.** 6.00 to 7.00

**Q.** And the DC50 (GSPT1)?
**A.** 30 to 300 nM

**Q.** What does the source list for `O=C1CCC(c2c(F)cc(N3CC(OC(=O)NC4CCCCCC4)C3)cc2F)C(=O)N1` (stereo not drawn) [Compound 134, 1-(4-(2,6-dioxopiperidin-3-yl)-3,5-difluorophenyl)azetidin-3-yl cycloheptylcarbamate]?
**A.** pIC50 (CRBN-DDB1): ≥ 7.00; DC50 (GSPT1): ≤ 30 nM

**Q.** How did the pIC50 (CRBN-DDB1) turn out when `CC1(NC(=O)OC2CN(c3cc(F)c(C4CCC(=O)NC4=O)c(F)c3)C2)CCCCC1` (stereo not drawn) [Compound 135, 1-(4-(2,6-dioxopiperidin-3-yl)-3,5-difluorophenyl)azetidin-3-yl (1-methylcyclohexyl)carbamate] was run?
**A.** ≥ 7.00

**Q.** And the DC50 (GSPT1)?
**A.** ≤ 30 nM

**Q.** With `O=C1CCC(c2c(F)cc(N3CC(OC(=O)NC4Cc5ccccc5C4)C3)cc2F)C(=O)N1` (stereo not drawn) [Compound 136, 1-(4-(2,6-dioxopiperidin-3-yl)-3,5-difluorophenyl)azetidin-3-yl (2,3-dihydro-1H-inden-2-yl)carbamate] as the molecule, how does the pIC50 (CRBN-DDB1) read?
**A.** ≥ 7.00

**Q.** What about the DC50 (GSPT1) of the same molecule?
**A.** ≤ 30 nM

**Q.** `O=C1CCC(c2c(F)cc(N3CC(OC(=O)NCc4ccccc4)C3)cc2F)C(=O)N1` (stereo not drawn) [Compound 137, 1-(4-(2,6-dioxopiperidin-3-yl)-3,5-difluorophenyl)azetidin-3-yl benzylcarbamate] was tested. Which pIC50 (CRBN-DDB1) did it give?
**A.** ≥ 7.00

**Q.** What about the DC50 (GSPT1) of the same molecule?
**A.** 30 to 300 nM

**Q.** Which results are given for `O=C1CCC(c2c(F)cc(N3CC(OC(=O)NC4CC5(CCC5)C4)C3)cc2F)C(=O)N1` (stereo not drawn) [Compound 138, 1-(4-(2,6-dioxopiperidin-3-yl)-3,5-difluorophenyl)azetidin-3-yl spiro[3.3]heptan-2-ylcarbamate]?
**A.** pIC50 (CRBN-DDB1): ≥ 7.00; DC50 (GSPT1): ≤ 30 nM

**Q.** `O=C1CCC(c2c(F)cc(N3CC(OC(=O)NCC4CCCC4)C3)cc2F)C(=O)N1` (stereo not drawn) [Compound 139, 1-(4-(2,6-dioxopiperidin-3-yl)-3,5-difluorophenyl)azetidin-3-yl (cyclopentylmethyl)carbamate] was tested. Which pIC50 (CRBN-DDB1) did it give?
**A.** ≥ 7.00

**Q.** What about the DC50 (GSPT1) of the same molecule?
**A.** ≤ 30 nM

**Q.** Which results are given for `O=C1CCC(c2c(F)cc(N3CC(OC(=O)N[C@@H]4CC5CCC4C5)C3)cc2F)C(=O)N1` (stereo partly drawn) [Compound 140, 1-(4-(2,6-dioxopiperidin-3-yl)-3,5-difluorophenyl)azetidin-3-yl(2R)-bicyclo[2.2.1]heptan-2-ylcarbamate]?
**A.** pIC50 (CRBN-DDB1): ≥ 7.00; DC50 (GSPT1): 30 to 300 nM

**Q.** What does the source list for `O=C1CCC(c2c(F)cc(N3CC(OC(=O)NCC4COC4)C3)cc2F)C(=O)N1` (stereo not drawn) [Compound 141, 1-(4-(2,6-dioxopiperidin-3-yl)-3,5-difluorophenyl) azetidin-3-yl (oxetan-3-ylmethyl)carbamate]?
**A.** pIC50 (CRBN-DDB1): ≥ 7.00; DC50 (GSPT1): > 300 nM

**Q.** What does the source list for `O=C1CCC(c2c(F)cc(N3CC(OC(=O)N4CCC(F)(F)CC4)C3)cc2F)C(=O)N1` (stereo not drawn) [Compound 142, 1-(4-(2,6-dioxopiperidin-3-yl)-3,5-difluorophenyl)azetidin-3-yl 4,4-difluoropiperidine-1-carboxylate]?
**A.** pIC50 (CRBN-DDB1): 6.00 to 7.00; DC50 (GSPT1): > 300 nM

**Q.** With `O=C1CCC(c2c(F)cc(N3CC(OC(=O)N4CCCCC4)C3)cc2F)C(=O)N1` (stereo not drawn) [Compound 143, 1-(4-(2,6-dioxopiperidin-3-yl)-3,5-difluorophenyl)azetidin-3-yl piperidine-1-carboxylate] as the molecule, how does the pIC50 (CRBN-DDB1) read?
**A.** 6.00 to 7.00

**Q.** And the DC50 (GSPT1)?
**A.** > 300 nM

**Q.** How did the pIC50 (CRBN-DDB1) turn out when `O=C1CCC(c2c(F)cc(N3CC(OC(=O)N4CCCC4)C3)cc2F)C(=O)N1` (stereo not drawn) [Compound 144, 1-(4-(2,6-dioxopiperidin-3-yl)-3,5-difluorophenyl)azetidin-3-yl pyrrolidine-1-carboxylate] was run?
**A.** 6.00 to 7.00

**Q.** And the DC50 (GSPT1)?
**A.** > 300 nM

**Q.** How did the pIC50 (CRBN-DDB1) turn out when `Cc1ccc(N(C)C(=O)OC2CN(c3cc(F)c(C4CCC(=O)NC4=O)c(F)c3)C2)cc1Cl` (stereo not drawn) [Compound 145, 1-(4-(2,6-dioxopiperidin-3-yl)-3,5-difluorophenyl)azetidin-3-yl(3-chloro-4-methylphenyl)(methyl) carbamate] was run?
**A.** ≥ 7.00

**Q.** And the DC50 (GSPT1)?
**A.** 30 to 300 nM
